Assay results from publication PMC8036666, “Biological and Physico-Chemical Characteristics of Arginine-Rich Peptide Gemini Surfactants with Lysine and Cystine Spacers” (International Journal of Molecular Sciences, 2021).
≈ marks a conversion by molar mass, not a printed value. Where “and” joins values, the source holds several entries; their conditions need not be identical. Equal entries are not always repeated. Where two headings read alike, the source gives them in different places. Where a SMILES comes first, the peptide text is derived from it. Bridges are numbered along the chain shown (N, C = ends). Roman numbers before positions name the chains, in order. Side-chain parts run from the residue outwards. [ ]: non-standard residue; d: D form. The star is where a group is joined. Myristoyl = CCCCCCCCCCCCCC(=O)*; Lauroyl = CCCCCCCCCCCC(=O)*; Decanoyl = CCCCCCCCCC(=O)*; Nle = CCCC[C@H](N)C(=O)O; Octanoyl = CCCCCCCC(=O)*

Tests used:
C. albicans ATCC 10231 = tested on: C. albicans ATCC 10231
Protocol: (§1) The Acinetobacter baumannii ATCC BAA-1605, Enterococcus faecium ATCC 700221, Escherichia coli ML-35 ATCC 43827, Klebsiella aerogenes ATCC 13048, Klebsiella pneumoniae ATCC 700603, Pseudomonas aeruginosa ATCC 9027, Staphylococcus aureus ATCC 25923, Staphylococcus aureus ATCC 33591, Candida albicans ATCC 10231, Candida glabrata ATCC 15126, strains were acquired from the American Type Culture Collection (ATCC). All the strains were stored at −80 °C in Roti-Store cryo vials and before the tests were transferred into fresh Mueller–Hinton broth (MHB, Biocorp, Warsaw, Poland) for bacteria or RPMI-1640 (Sigma-Aldrich, Steinheim, Germany) for fungi and incubated for 24 h at 37 °C. Then, the cultures were seeded on the Mueller–Hinton agar (BioMaxima, Lublin, Poland) or Sabouraud dextrose agar (SDA, BioMaxima, Lublin, Poland) plates, respectively, and incubated as just mentioned. These agar cultures were used for further microbiological assays. Cell densities for all assays were adjusted spectrophotometrically (Multiskan GO Microplate Spectrophotometer, Thermo Fisher Scientific, Vantaa, Finland) at 600 and 530 nm for bacteria and fungi, respectively.
(§2) The MICs were determined by the broth microdilution method according to the Clinical and Laboratory Standard Institute guidelines. For this purpose, initial inoculums of bacteria (5 × 10^5 CFU/mL) in MHB and yeasts (2 × 10^3 CFU/mL) in RPMI-1640 with 2% D-glucose were exposed to the ranging concentration of lipopeptides (0.5–256 μg/mL) and incubated at 37 °C for 18 h and 24 h, respectively. The experiments were conducted on 96-well microtiter polystyrene plates (Kartell, Noviglio, Italy). The growth was assessed visually after incubation, and the MIC was assumed as the lowest peptide concentration at which a noticeable growth of microorganisms was inhibited. All experiments were conducted in triplicate.

C. glabrata ATCC 15126 = tested on: C. glabrata ATCC 15126
Protocol: as §1, §2

[1] = Lipopeptide hydrophobicity by RP-HPLC (adjusted retention time); format: physicochemical; conditions: for Adjusted Retention Time: RP-HPLC, 20–65% acetonitrile over 30 min, indicator of hydrophobicity; for Difference in retention time calculated as tR’C—tR’B: between corresponding surfactants of series C and B
Protocol: (§3) The identity of the purified peptides was confirmed with electrospray ionization mass spectrometry (ESI-MS) in positive ion mode. Results of MS analyses and net charge are attached in Supplementary Materials (Table S1). Peptides’ hydrophobicity was evaluated by analytical reversed-phase high-performance liquid chromatography (RP-HPLC). The critical aggregation concentrations (CACs) of the lipopeptides were determined in unbuffered aqueous solution at 298 K by measuring the surface tension as a function of lipopeptide concentration. The measurements were carried out by the Du Noüy ring method on a K100 tensiometer. The surface tension data were plotted against the logarithm of lipopeptide concentration. CAC was found as the intersection of two lines being linear regression of data below and above CAC.
Lipopeptide hydrophobicity was determined as described previously. To do this, a Waters Alliance e2695 system with a Waters 2998 PDA Detector (software-Empower 3, Waters, Milford, MA, USA) was used. All analyses were carried out on a Waters X-Bridge Shield RP-18 column (3.0 × 100 mm, 3.5 μm particle size, 130 Å pore size). The Shield Technology column with embedded polar groups was used to minimize interactions of unreacted silanol groups with basic lipopeptides. The peptides were dissolved in water (0.1% TFA, v/v) up to a concentration of 1 mg/mL. UV detection at 214 nm was used, and samples (10 μL) were eluted with a linear 20–65% acetonitrile gradient in deionized water over 30 min at 25.0 ± 0.1 °C. The mobile phase flow rate was 0.5 mL/min. Both eluents contained 0.1% (v/v) of TFA. Each peptide sample was analyzed in triplicate. The maximum standard deviation and coefficient of variation were 0.044 and 0.85%, respectively.

HaCaT cells = format: cell-based, human; conditions: 24 h
Protocol: Cells were trypsinized, and the medium was renewed 2–3 times per week. The cytotoxicity of compounds was assessed by the determination of cell metabolic activity by colorimetric CellTilter 96® Aqueous One Solution Cell Proliferation Assay (Promega, Madison, WI, USA), according to the manufacturer’s instructions. […] Every compound was medium-soluble in 37 °C; thus, the control cells were cultured with the medium. Serial dilutions of the tested compounds were always prepared prior to use. Cells were incubated with drugs for 24 h, and then, 20 μL of the CellTiter 96®AqueousOne Solution Reagent was added to each well containing cells maintained in 100 μL of culture medium.

[2] = tested on: human red blood cells (hRBCs); experiment: Hemolysis assay; format: cell-based; conditions: 1 h
Protocol: The hemolysis assay was performed by using the method reported previously. Fresh human red blood cells (hRBCs) with anticoagulant (EDTA) were rinsed three times with a PBS by centrifugation at 800× g for 10 min and diluted with PBS. The compounds were serially diluted on a 96-well microtiter polystyrene plate, and hRBCs were added up to a final volume of 100 μL. The compound concentration ranged between 0.5 and 256 μg/mL and the final hRBCs concentration was 4% (v/v). Controls for zero (blank) and 100% hemolysis consisted of hRBCs suspended in PBS and 1% of Triton-X 100 (Carl Roth GmbH, Karlsruhe, Germany), respectively. The plate was incubated for 1 h at 37 °C and then centrifuged (800× g, 10 min, 4 °C). Subsequently, the supernatant was […] to new microtiter plates, and the absorbance at 540 nm was measured (Multiskan GO Microplate Spectrophotometer, Thermo Fisher Scientific, Vantaa, Finland). All experiments were conducted in triplicate. HC50 was calculated using an ic50.tk tool. The protocol of the study was approved by the local Bioethics Committee at the Medical University of Gdańsk (NKBBN/262/2019, approval date: 10 June 2019).

[3] = Critical aggregation concentration by surface tension (Du Noüy ring, K100 tensiometer); format: physicochemical; conditions: for CAC / Surface Tension at CAC: unbuffered aqueous solution, 298 K
Protocol: as §3
The critical aggregation concentration (CAC) values were determined fully automatically using a K100 tensiometer (KRUSS, Hamburg, Germany) equipped with two micro dosimeters by measuring the surface tension vs. lipopeptide concentration. The measurements were performed in unbuffered aqueous solution at 298 K using the Du Noüy ring method. The accuracy of the surface tension measurements was 0.1 mN/m. The critical aggregation concentration (CAC) was defined as the intersection of two lines fitted to the experimental data collected before and after the inflection point.

Row | SMILES | MIC C. albicans ATCC 10231 (C. albicans ATCC 10231; ATCC 10231, 24 h) [µg/mL] | MIC C. glabrata ATCC 15126 (C. glabrata ATCC 15126; ATCC 15126, 24 h) [µg/mL] | Adjusted Retention Time [1] [min] | IC50 (HaCaT cells) [µg/mL] | HC50 ([2]; red cells of human) [µg/mL] | CAC [3] | Surface Tension at CAC [3] [mN/m] | Difference in retention time calculated as tR’C—tR’B [1] [min] | MIC C. albicans ATCC 10231 (C. albicans ATCC 10231; planktonic culture) [µg/mL] | MIC C. glabrata ATCC 15126 (C. glabrata ATCC 15126; planktonic culture) [µg/mL] | IC50 (HaCaT cells; HaCaT, MTS) [µg/mL] | HC50 ([2]; hRBCs 4% (v/v), 37 °C) [µg/mL] | increase in the CAC value by branching of the acyl chains ([3]; C7 compared with C3)
1 | CCCCCCCC(=O)N[C@@H](CCCC)C(=O)N[C@@H](CCCNC(=N)N)C(=O)N[C@@H](CCCNC(=N)N)C(=O)NCCCC[C@H](NC(=O)[C@H](CCCNC(=N)N)NC(=O)[C@H](CCCNC(=N)N)NC(=O)[C@H](CCCC)NC(=O)CCCCCCC)C(N)=O [Compound B6] (Octanoyl-[Nle]RRK([Arg-Arg-Nle-Octanoyl])-NH2) | 16 (≈ 12.8 µM) | 16 (≈ 12.8 µM) | 13.96 | 164.17 ± 14.65 (≈ 131 µM) | >256 | 3.59 mM and 4482.4 μg/mL | 37 | – | – | – | – | – | –
2 | CCCCCCCCCC(=O)N[C@@H](CCCNC(=N)N)C(=O)N[C@@H](CCCNC(=N)N)C(=O)N[C@@H](CSSC[C@H](NC(=O)[C@H](CCCNC(=N)N)NC(=O)[C@H](CCCNC(=N)N)NC(=O)CCCCCCCCC)C(N)=O)C(N)=O [Compound C2] (I: Decanoyl-Arg-Arg-Cys-NH2 / II: Decanoyl-Arg-Arg-Cys-NH2; disulfide I:3-II:3) | 4 (≈ 3.41 µM) | 8 (≈ 6.83 µM) | 13.94 | 231.17 ± 24.37 (≈ 197 µM) | >256 | 3.30 mM and 3832.7 μg/mL | 43 | 0.21 | – | – | – | – | –
3 | CCCCCCCCCCCC(=O)N[C@@H](CCCNC(=N)N)C(=O)N[C@@H](CCCNC(=N)N)C(=O)N[C@@H](CSSC[C@H](NC(=O)[C@H](CCCNC(=N)N)NC(=O)[C@H](CCCNC(=N)N)NC(=O)CCCCCCCCCCC)C(N)=O)C(N)=O [Compound C3] (I: Lauroyl-Arg-Arg-Cys-NH2 / II: Lauroyl-Arg-Arg-Cys-NH2; disulfide I:3-II:3) | 1 (≈ 0.815 µM) | 2 (≈ 1.63 µM) | 19.24 | 119.47 ± 6.03 (≈ 97.3 µM) | 36.24 ± 2.35 | 0.25 mM and 305.4 μg/mL | 43 | 0.15 | – | – | – | – | –
4 | CCCCCCCCCCCCCC(=O)N[C@@H](CCCNC(=N)N)C(=O)N[C@@H](CCCNC(=N)N)C(=O)N[C@@H](CSSC[C@H](NC(=O)[C@H](CCCNC(=N)N)NC(=O)[C@H](CCCNC(=N)N)NC(=O)CCCCCCCCCCCCC)C(N)=O)C(N)=O [Compound C4] (I: Myristoyl-Arg-Arg-Cys-NH2 / II: Myristoyl-Arg-Arg-Cys-NH2; disulfide I:3-II:3) | 2 (≈ 1.56 µM) | 1 (≈ 0.779 µM) | 25.30 | 54.52 ± 15.40 (≈ 42.5 µM) | 20.89 ± 1.06 | 0.06 mM and 71.1 μg/mL | 47 | -0.03 | – | – | – | – | –
5 | CCCCCCCC(=O)N[C@@H](Cc1ccccc1)C(=O)N[C@@H](CCCNC(=N)N)C(=O)N[C@@H](CCCNC(=N)N)C(=O)N[C@@H](CSSC[C@H](NC(=O)[C@H](CCCNC(=N)N)NC(=O)[C@H](CCCNC(=N)N)NC(=O)[C@H](Cc1ccccc1)NC(=O)CCCCCCC)C(N)=O)C(N)=O [Compound C5] (I: Octanoyl-FRRC-NH2 / II: Octanoyl-FRRC-NH2; disulfide I:4-II:4) | – | – | 15.42 | – | – | 2.58 mM and 3632.7 μg/mL | 37 | 0.23 | 8 (≈ 5.67 µM) | 8 (≈ 5.67 µM) | 146.63 ± 14.95 (≈ 104 µM) | 117.06 ± 4.60 | –
6 | CCCCCCCC(=O)N[C@@H](CCCC)C(=O)N[C@@H](CCCNC(=N)N)C(=O)N[C@@H](CCCNC(=N)N)C(=O)N[C@@H](CSSC[C@H](NC(=O)[C@H](CCCNC(=N)N)NC(=O)[C@H](CCCNC(=N)N)NC(=O)[C@H](CCCC)NC(=O)CCCCCCC)C(N)=O)C(N)=O [Compound C6] (I: Octanoyl-[Nle]RRC-NH2 / II: Octanoyl-[Nle]RRC-NH2; disulfide I:4-II:4) | 16 (≈ 11.9 µM) | 16 (≈ 11.9 µM) | 14.29 | 248.83 ± 18.81 (≈ 185 µM) | >256 | 4.28 mM and 5737.7 μg/mL | 35 | 0.33 | – | – | – | – | –
7 | CCCCCCC(CCCC)C(=O)N[C@@H](CCCNC(=N)N)C(=O)N[C@@H](CCCNC(=N)N)C(=O)N[C@@H](CSSC[C@H](NC(=O)[C@H](CCCNC(=N)N)NC(=O)[C@H](CCCNC(=N)N)NC(=O)C(CCCC)CCCCCC)C(N)=O)C(N)=O (some centres unmarked) [Compound C7] | 16 (≈ 13 µM) | 16 (≈ 13 µM) | 14.83 | 163.98 ± 13.66 (≈ 134 µM) | >256 | 6.21 mM and 7628.1 μg/mL | 35 | 0.15 | – | – | – | – | ca. 25 fold
